Assay results: the NIST ThermoML archive (doi:10.1016/j.jct.2011.08.016)

Test: xn = mol fraction of the nth substance listed
Conditions: Liquid, Vibrating tube method

CCCCCCCCCC [decane] + CCCCCCC
Conditions	mass density [kg/m3]
333.12 K, 4000 kPa, x2 = 0.0531	701.18
333.12 K, 4000 kPa, x2 = 0.777	668.42
333.12 K, 5000 kPa, x2 = 0.0531	702.16
333.12 K, 5000 kPa, x2 = 0.777	669.49
333.12 K, 6000 kPa, x2 = 0.0531	703.1
333.12 K, 6000 kPa, x2 = 0.777	670.55
333.12 K, 7000 kPa, x2 = 0.0531	704.05
333.12 K, 7000 kPa, x2 = 0.777	671.62
333.12 K, 8000 kPa, x2 = 0.0531	704.99
333.12 K, 8000 kPa, x2 = 0.777	672.68
333.12 K, 9000 kPa, x2 = 0.0531	705.9
333.12 K, 9000 kPa, x2 = 0.777	673.73
333.12 K, 10000 kPa, x2 = 0.0531	706.8
333.12 K, 10000 kPa, x2 = 0.777	674.77
333.12 K, 10990 kPa, x2 = 0.0531	707.69
333.12 K, 10990 kPa, x2 = 0.777	675.8
333.12 K, 12000 kPa, x2 = 0.0531	708.56
333.12 K, 12000 kPa, x2 = 0.777	676.81
333.12 K, 13000 kPa, x2 = 0.0531	709.43
333.12 K, 13000 kPa, x2 = 0.777	677.81
333.12 K, 14000 kPa, x2 = 0.0531	710.28
333.12 K, 14000 kPa, x2 = 0.777	678.79
333.12 K, 15000 kPa, x2 = 0.0531	711.14
333.12 K, 15000 kPa, x2 = 0.777	679.76
333.12 K, 16000 kPa, x2 = 0.0531	711.96
333.12 K, 16000 kPa, x2 = 0.777	680.71
333.12 K, 17000 kPa, x2 = 0.0531	712.79
333.12 K, 17000 kPa, x2 = 0.777	681.65
333.12 K, 18000 kPa, x2 = 0.0531	713.6
333.12 K, 18000 kPa, x2 = 0.777	682.58
333.12 K, 19000 kPa, x2 = 0.0531	714.39
333.12 K, 19000 kPa, x2 = 0.777	683.49
333.12 K, 20000 kPa, x2 = 0.0531	715.18
333.12 K, 20000 kPa, x2 = 0.777	684.39
333.12 K, 21000 kPa, x2 = 0.0531	715.96
333.12 K, 21000 kPa, x2 = 0.777	685.27
333.12 K, 22000 kPa, x2 = 0.0531	716.72
333.12 K, 22000 kPa, x2 = 0.777	686.1
333.12 K, 23000 kPa, x2 = 0.0531	717.46
333.12 K, 23000 kPa, x2 = 0.777	686.9
333.12 K, 24000 kPa, x2 = 0.0531	718.21
333.12 K, 24000 kPa, x2 = 0.777	687.68
333.12 K, 25000 kPa, x2 = 0.0531	718.95
333.12 K, 25000 kPa, x2 = 0.777	688.47
333.13 K, 1000 kPa, x2 = 0.952	653.95
333.13 K, 2000 kPa, x2 = 0.952	655.14
333.13 K, 3000 kPa, x2 = 0.952	656.33
333.13 K, 4000 kPa, x2 = 0.952	657.51
333.13 K, 5000 kPa, x2 = 0.952	658.67
333.13 K, 6000 kPa, x2 = 0.952	659.82
333.13 K, 7000 kPa, x2 = 0.952	660.95
333.13 K, 8000 kPa, x2 = 0.952	662.06
333.13 K, 9000 kPa, x2 = 0.952	663.16
333.13 K, 10000 kPa, x2 = 0.952	664.24
333.13 K, 10990 kPa, x2 = 0.952	665.3
333.13 K, 12000 kPa, x2 = 0.952	666.34
333.13 K, 13000 kPa, x2 = 0.952	667.37
333.13 K, 14000 kPa, x2 = 0.952	668.38
333.13 K, 15000 kPa, x2 = 0.952	669.39
333.13 K, 16000 kPa, x2 = 0.952	670.37
333.13 K, 17000 kPa, x2 = 0.952	671.33
333.13 K, 18000 kPa, x2 = 0.952	672.29
333.13 K, 19000 kPa, x2 = 0.952	673.23
333.13 K, 20000 kPa, x2 = 0.952	674.14
333.13 K, 21000 kPa, x2 = 0.952	675.04
333.13 K, 22000 kPa, x2 = 0.952	675.93
333.13 K, 23000 kPa, x2 = 0.952	676.79
333.13 K, 24000 kPa, x2 = 0.952	677.64
333.13 K, 25000 kPa, x2 = 0.952	678.45
333.14 K, 1000 kPa, x2 = 0.2594	690.74
333.14 K, 2000 kPa, x2 = 0.2594	691.66
333.14 K, 3000 kPa, x2 = 0.2594	692.62
333.14 K, 4000 kPa, x2 = 0.2594	693.57
333.14 K, 5000 kPa, x2 = 0.2594	694.49
333.14 K, 6000 kPa, x2 = 0.2594	695.43
333.14 K, 7000 kPa, x2 = 0.2594	696.4
333.14 K, 8000 kPa, x2 = 0.2594	697.34
333.14 K, 9000 kPa, x2 = 0.2594	698.3
333.14 K, 10000 kPa, x2 = 0.2594	699.23
333.14 K, 10990 kPa, x2 = 0.2594	700.16
333.14 K, 12000 kPa, x2 = 0.2594	701.08
333.14 K, 13000 kPa, x2 = 0.2594	701.98
333.14 K, 14000 kPa, x2 = 0.2594	702.87
333.14 K, 15000 kPa, x2 = 0.2594	703.75
333.14 K, 16000 kPa, x2 = 0.2594	704.61
333.14 K, 17000 kPa, x2 = 0.2594	705.47
333.14 K, 18000 kPa, x2 = 0.2594	706.33
333.14 K, 19000 kPa, x2 = 0.2594	707.13
333.14 K, 20000 kPa, x2 = 0.2594	707.94
333.14 K, 21000 kPa, x2 = 0.2594	708.75
333.14 K, 22000 kPa, x2 = 0.2594	709.53
333.14 K, 23000 kPa, x2 = 0.2594	710.3
333.14 K, 24000 kPa, x2 = 0.2594	711.03
333.14 K, 25000 kPa, x2 = 0.2594	711.74
